{
  "source": "paper PMC9655968",
  "about": "“Synthesis of Novel Bromophenol with Diaryl Methanes—Determination of Their Inhibition Effects on Carbonic Anhydrase and Acetylcholinesterase” (Molecules, 2022)",
  "type_in_all_cases": "biochemical",
  "key": {"[1]": {"target": "hCA I (Homo sapiens, UniProt P00915)", "sequence (P00915 whole entry, canonical isoform)": "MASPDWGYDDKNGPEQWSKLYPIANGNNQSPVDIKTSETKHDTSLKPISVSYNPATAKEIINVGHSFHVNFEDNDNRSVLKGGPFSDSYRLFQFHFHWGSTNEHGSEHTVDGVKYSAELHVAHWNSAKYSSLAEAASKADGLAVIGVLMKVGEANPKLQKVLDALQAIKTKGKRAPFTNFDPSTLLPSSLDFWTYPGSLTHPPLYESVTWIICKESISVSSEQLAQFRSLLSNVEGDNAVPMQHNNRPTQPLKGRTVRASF", "assay": "biochemical", "conditions": "for IC50: esterase method; for Ki: from Lineweaver-Burk graphs, mean ± SD", "experimental": "(§1) […] Both hCA isoforms were purified by using the Sepharose-4B-L-Tyrosine-sulfanilamide affinity technique. Then, the purity of these CA isoenzymes was defined via the SDS-PAGE purity technique.\n(§2) In order to investigate the in vitro inhibitory mechanisms of bromophenols (13–21), kinetic studies were performed at different concentrations of bromophenols and various substrates."}, "[2]": {"target": "hCA II (Homo sapiens, UniProt P00918)", "assay": "biochemical", "conditions": "for IC50: esterase method; for Ki: from Lineweaver-Burk graphs, mean ± SD", "experimental": "as §1, §2"}, "[3]": {"target": "AChE (Electrophorus electricus, UniProt O42275)", "sequence (O42275 24-633)": "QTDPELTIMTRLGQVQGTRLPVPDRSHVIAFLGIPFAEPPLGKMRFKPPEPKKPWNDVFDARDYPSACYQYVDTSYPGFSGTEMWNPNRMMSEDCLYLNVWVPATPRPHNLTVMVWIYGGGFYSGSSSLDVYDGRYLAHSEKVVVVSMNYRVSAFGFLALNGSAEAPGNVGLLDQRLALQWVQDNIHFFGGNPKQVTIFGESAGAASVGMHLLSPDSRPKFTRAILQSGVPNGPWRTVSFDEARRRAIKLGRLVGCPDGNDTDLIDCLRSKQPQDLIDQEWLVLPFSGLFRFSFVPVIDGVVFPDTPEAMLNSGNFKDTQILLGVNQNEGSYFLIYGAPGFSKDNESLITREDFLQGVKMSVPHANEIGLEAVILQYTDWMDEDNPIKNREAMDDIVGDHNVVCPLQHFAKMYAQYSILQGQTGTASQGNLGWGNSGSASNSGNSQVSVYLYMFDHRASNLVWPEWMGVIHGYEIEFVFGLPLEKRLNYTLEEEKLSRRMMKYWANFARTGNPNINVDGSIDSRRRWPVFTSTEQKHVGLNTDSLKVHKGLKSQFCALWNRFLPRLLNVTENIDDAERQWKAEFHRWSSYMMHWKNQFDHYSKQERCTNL", "assay": "AChE inhibition, Ellman's method at 412 nm, acetylthiocholine iodide substrate", "conditions": "for IC50: Ellman's method; for Ki: from Lineweaver-Burk graphs, mean ± SD", "experimental": "Acetylthiocholine iodide (AChI) was used as substrate, according to a prior study. […]\nas §2"}, "[4]": {"conditions": "19 and 21 compared (hydroxyl instead of methyl)"}},
  "data": [
    {"compound": "Oc1ccc(Cc2cc(O)c(O)cc2Br)c(Br)c1", "note": "[Compound 18, 4-Bromo-5-(2-bromo-4-hydroxybenzyl)benzene-1,2-diol]", "values": [
      {"measurement": "IC50", "setting": "[1]", "value": 15.4, "unit": "nM"},
      {"measurement": "Ki", "setting": "[1]", "value": "12.5 ± 0.66", "unit": "nM"},
      {"measurement": "IC50", "setting": "[2]", "value": 11.4, "unit": "nM"},
      {"measurement": "Ki", "setting": "[2]", "value": "9.15 ± 1.36", "unit": "nM"}
    ]},
    {"compound": "Oc1cc(Br)c(Cc2cc(O)c(Br)cc2O)cc1O", "note": "[Compound 20, 4-Bromo-5-(4-bromo-2,5-dihydroxybenzyl)benzene-1,2-diol]", "values": [
      {"measurement": "IC50", "setting": "[1]", "value": 19.3, "unit": "nM"},
      {"measurement": "Ki", "setting": "[1]", "value": "13.4 ± 2.29", "unit": "nM"},
      {"measurement": "IC50", "setting": "[2]", "value": 14.1, "unit": "nM"},
      {"measurement": "Ki", "setting": "[2]", "value": "6.21 ± 1.01", "unit": "nM"}
    ]},
    {"compound": "Oc1ccc(O)c(Cc2cc(O)c(O)cc2Br)c1", "note": "[Compound 21, 4-Bromo-5-(2,5-dihydroxybenzyl)benzene-1,2-diol]", "values": [
      {"measurement": "IC50", "setting": "[1]", "value": 12.4, "unit": "nM"},
      {"measurement": "Ki", "setting": "[1]", "value": "11 ± 3.83", "unit": "nM"},
      {"measurement": "fold increase in the inhibition value, hCA II", "setting": "[2]; [4]", "value": 3.03, "unit": "fold"},
      {"measurement": "IC50", "setting": "[2]", "value": 7.45, "unit": "nM"},
      {"measurement": "Ki", "setting": "[2]", "value": "4.97 ± 0.59", "unit": "nM"},
      {"measurement": "fold increase in the inhibition value, AChE", "setting": "[3]; [4]", "value": 2.67, "unit": "fold"}
    ]},
    {"compound": "COc1cc(Br)c(Cc2ccc(OC)c(OC)c2OC)cc1OC", "note": "[Compound 17, 1-(2-bromo-4,5dimethoxybenzyl)-2,3,4-trimethoxybenzene]", "values": [
      {"measurement": "IC50", "setting": "[1]", "value": 27.7, "unit": "nM"},
      {"measurement": "Ki", "setting": "[1]", "value": "18.8 ± 4.97", "unit": "nM"},
      {"measurement": "IC50", "setting": "[2]", "value": 23.1, "unit": "nM"},
      {"measurement": "Ki", "setting": "[2]", "value": "10.3 ± 1.88", "unit": "nM"}
    ]},
    {"compound": "4-Bromo-5-(2-bromo-4-hydroxybenzyl)benzene-1,2-diol [Compound 19]", "values": [
      {"measurement": "IC50", "setting": "[3]", "value": 20.4, "unit": "nM"},
      {"measurement": "Ki", "setting": "[3]", "value": "17.4 ± 3.15", "unit": "nM"}
    ]},
    {"compound": "COc1ccc(OC)c(Cc2cc(OC)c(OC)cc2Br)c1", "note": "[Compound 16, 1-Bromo-2-(2,5-dimethoxybenzyl)-4,5-dimethoxybenzene]", "values": [
      {"measurement": "IC50", "setting": "[1]", "value": 21, "unit": "nM"},
      {"measurement": "Ki", "setting": "[1]", "value": "12.8 ± 0.52", "unit": "nM"},
      {"measurement": "IC50", "setting": "[2]", "value": 15.8, "unit": "nM"},
      {"measurement": "Ki", "setting": "[2]", "value": "7.77 ± 0.57", "unit": "nM"}
    ]},
    {"compound": "COc1ccc(Cc2cc(OC)c(OC)cc2Br)c(Br)c1", "note": "[Compound 13, 1-Bromo-2-(2-bromo-4-methoxybenzyl)-4,5-dimethoxybenzene]", "values": [
      {"measurement": "IC50", "setting": "[1]", "value": 38.5, "unit": "nM"},
      {"measurement": "Ki", "setting": "[1]", "value": "25.7 ± 4.58", "unit": "nM"},
      {"measurement": "IC50", "setting": "[2]", "value": 21, "unit": "nM"},
      {"measurement": "Ki", "setting": "[2]", "value": "1.63 ± 0.11", "unit": "nM"}
    ]},
    {"compound": "1-Bromo-4,5-dimethoxy-2-(5-methoxy-2-methylbenzyl)benzene [Compound 14]", "values": [
      {"measurement": "fold greater effect on inhibition, hCA I", "setting": "[1]; 14 (methyl) compared with 16 (methoxy)", "value": 5.06, "unit": "fold"},
      {"measurement": "fold difference in the inhibition value, hCA I", "setting": "[1]; compounds 14 and 19 compared", "value": 8.04, "unit": "fold"},
      {"measurement": "IC50", "setting": "[1]", "value": 19.8, "unit": "nM"},
      {"measurement": "Ki", "setting": "[1]", "value": "2.53 ± 0.25", "unit": "nM"},
      {"measurement": "IC50", "setting": "[2]", "value": 14.7, "unit": "nM"},
      {"measurement": "Ki", "setting": "[2]", "value": "4.28 ± 0.86", "unit": "nM"},
      {"measurement": "IC50", "setting": "[3]", "value": 11.9, "unit": "nM"},
      {"measurement": "Ki", "setting": "[3]", "value": "11.6 ± 2.75", "unit": "nM"}
    ]},
    {"compound": "COc1cc(Cc2cc(OC)c(OC)cc2Br)c(OC)cc1Br", "note": "[Compound 15, 1-Bromo-2-(4-bromo-2,5-dimethoxybenzyl)-4,5-dimethoxybenzene]", "values": [
      {"measurement": "fold decrease in the Ki value, hCA I", "setting": "[1]; 15 compared with 16 (bromo group at 4th position)", "value": 1.37, "unit": "fold"},
      {"measurement": "IC50", "setting": "[1]", "value": 20.4, "unit": "nM"},
      {"measurement": "Ki", "setting": "[1]", "value": "9.35 ± 1.88", "unit": "nM"},
      {"measurement": "IC50", "setting": "[2]", "value": 15.1, "unit": "nM"},
      {"measurement": "Ki", "setting": "[2]", "value": "2.62 ± 0.13", "unit": "nM"}
    ]}
  ]
}
